Results published in patent publication US6627441B1, “Increasing levels of growth regulator and/or water stress during embryo development” (priority 1998, dated 2003).

What was measured:
[1] = tested on: white spruce somatic embryos; assay: Effect of ABA concentration and PEG medium water potential on maturation frequency and precocious germination (Example 1); type: cell-based; conditions: for mean maturation frequency / precocious germination (appearance of embryos): 6 weeks; for mean maturation frequency: embryos per dish; for total of means (maturation frequency): summed over PEG medium water potentials 230-310
Experimental: For maturation, the ½ LM basal medium was supplemented with 250 mg/L glutamine and 500 mg/L casein hydrolysate and 3% sucrose. Amino acids were filter sterilized and added to cooled media. ABA (Sigma A 2784) stock solutions were prepared by first dissolving ABA in concentrated NaOH. ABA was added after autoclaving. The purity and source of (+)-ABA can influence results. Purer (+)-ABA would be required in lower amounts. Actual levels need to be determined depending on the source of ABA, the components of the culture medium, and species being studied. […] It is also possible to complement the maturation medium by incorporating auxin and/or cytokinin, or plant growth promoters having auxin-like and cytokinin-like activity. Similarly, gibberellin is in principle also a suitable complementary growth promoter, and an empirical approach taking into account such factors as plant species, environment, and so forth should be used to determine the concentration etc. of gibberellin.
For maturation, the solidified culture medium in 9 cm petri dishes was overlaid with a filter paper support to facilitate transfers to fresh media. Onto this was pipetted 0.75 mL of a 20% suspension of precultured cells resuspended in fresh hormone-free preculture medium with 3% sucrose. Cultures were incubated at 25 ° C. in the dark and transferred to fresh medium every two weeks.
Thus, immature white spruce somatic embryos were cultured on medium containing 8, 16, 24, and 32 μM ABA. […] Embryos were transferred to fresh medium of the same composition and were cultured for a total of six weeks. The number of embryos per dish were then counted and the appearance of the embryos was recorded. Results are for three to eight dishes per treatment. A total of 2439 mature embryos were recorded.

somatic embryos = assay: High intensity water stressing and ABA, inhibition of precocious germination (Example 3); type: cell-based, white spruce and Norway spruce
Experimental: Somatic embryos were plated on medium containing PEG adjusted to 290 mmol/kg PEG and 16 μM ABA then either transferred to fresh medium of the same composition every two weeks, or transferred every two weeks to medium containing increasing ABA and PEG as outlined in Table 3.

[2] = tested on: white spruce somatic embryos; assay: Effect of water stress and ABA on somatic embryo moisture contents (Example 4); type: cell-based
Experimental: Water potentials were measured for liquid media containing various osmotica at a range of concentrations, which were plotted on a curve. Determinations were made using a vapour pressure osmometer (Wescor). Moisture content determinations were done using methods described previously by Attree et al. (U.S. Pat. No. 5,464,769).
Embryos were cultured on medium containing 3% sucrose and ABA, with additional osmoticum adjusted to vary water potentials, as shown in Table 4.
Embryos were cultured for six weeks and moisture contents determined. Determinations for each treatment were made weekly, with three replicates per treatment. 50 embryos per replicate were used. In some instances, particularly for the control with low osmoticum, insufficient embryos were produced. In these cases, the minimum number of embryos used per replicate was thirty. For weeks 0 to 2, the embryos were too small to be used for moisture content determinations, so whole tissue was used instead.

[3] = treatment 3: PEG medium 290 mmol/kg with constant ABA 20 μM, six weeks

Work on `CC1=CC(=O)CC(C)(C)[C@@]1(O)/C=C/C(C)=C\C(=O)O` [ABA, abscisic acid] yielded a mean maturation frequency ([1]; ABA 8 μm, PEG medium water potential 230 (mmol/kg)) of 29.7, a mean maturation frequency ([1]; ABA 8 μm, PEG medium water potential 260 (mmol/kg)) of 53.0 and a mean maturation frequency ([1]; ABA 8 μm, PEG medium water potential 290 (mmol/kg)) of 44.3. The mean maturation frequency ([1]; ABA 8 μm, PEG medium water potential 310 (mmol/kg)) was 10.7, the “precocious germination (appearance of embryos)” value ([1]; ABA 8 μm, PEG medium water potential 310 (mol/kg)) was “greening” and the “total of means (maturation frequency)” value ([1]; ABA 8 μm) was 137.7. For the same compound, the mean maturation frequency ([1]; ABA 16 μm, PEG medium water potential 230 (mmol/kg)) was 15.6, the mean maturation frequency ([1]; ABA 16 μm, PEG medium water potential 260 (mmol/kg)) was 44.0 and the “precocious germination (appearance of embryos)” value ([1]; ABA 16 μm, PEG medium water potential 260 (mol/kg)) was “greening”. For the same compound, the mean maturation frequency ([1]; ABA 16 μm, PEG medium water potential 290 (mmol/kg)) was 20.1, the mean maturation frequency ([1]; ABA 16 μm, PEG medium water potential 310 (mmol/kg)) was 0 and the “total of means (maturation frequency)” value ([1]; ABA 16 μm) was 79.7. For the same compound, the mean maturation frequency ([1]; ABA 24 μm, PEG medium water potential 230 (mmol/kg)) was 28.0, the “precocious germination (appearance of embryos)” value ([1]; ABA 24 μm, PEG medium water potential 230 (mol/kg)) was “greening” and the mean maturation frequency ([1]; ABA 24 μm, PEG medium water potential 260 (mmol/kg)) was 22.8. For the same compound, the mean maturation frequency ([1]; ABA 24 μm, PEG medium water potential 290 (mmol/kg)) was 28.7, the mean maturation frequency ([1]; ABA 24 μm, PEG medium water potential 310 (mmol/kg)) was 1.0 and the “total of means (maturation frequency)” value ([1]; ABA 24 μm) was 80.5. It also gave a mean maturation frequency ([1]; ABA 32 μm, PEG medium water potential 230 (mmol/kg)) of 28.0, a mean maturation frequency ([1]; ABA 32 μm, PEG medium water potential 260 (mmol/kg)) of 22.7 and a mean maturation frequency ([1]; ABA 32 μm, PEG medium water potential 290 (mmol/kg)) of 8.6. The mean maturation frequency ([1]; ABA 32 μm, PEG medium water potential 310 (mmol/kg)) was 2.5, the “total of means (maturation frequency)” value ([1]; ABA 32 μm) was 61.8 and the precocious germination (somatic embryos; maintained on 290 mmol/kg PEG and 16 μM ABA, fresh medium every two weeks, week 10) was “precociously germinated”. For the same compound, the precocious germination (somatic embryos; schedule of increasing ABA (16 to 56 μM) and PEG (290 to 650 mmol/kg), biweekly transfer, 10 weeks) was “no evidence of precocious germination”, the greening of embryos ([2]; treatment 1: ABA 20 to 40 μM, 3% sucrose, 190 mmol/kg, after six weeks) was “evidence of greening” and the greening of embryos [2, 3] was “slight greening of cotyledons”. For the same compound, the “moisture content of somatic embryos” value [2, 3] was “below 55%”, the “moisture content of somatic embryos” value ([2]; treatment 4: PEG medium 290 mmol/kg with increasing ABA 20, 30, 40 μM, compared with treatment 3) was “further slight reductions in moisture content” and the greening of embryos ([2]; treatment 5: ABA to 40 μM, PEG medium to 400 mmol/kg) was “No greening”. The “moisture content of somatic embryos” value ([2]; treatment 5: ABA to 40 μM, PEG medium to 400 mmol/kg after week two, compared with treatment 4) was “a further reduction in moisture content”, the greening of embryos ([2]; treatment 6: ABA to 40 μM, PEG medium to 540 mmol/kg) was “No greening” and the “yield of mature somatic embryos” value ([2]; treatment 6: PEG water potential raised to 540 mmol/kg with ABA to 40 μM) was 300-350 mature somatic embryos per dish. For the same compound, the “moisture content of somatic embryos” value ([2]; treatment 6: PEG water potential raised to 540 mmol/kg with ABA to 40 μM, end of six-week culture) was ~40%.
